According to paper doi:10.1101/2025.08.21.671593v1, “Suppression and modulation mechanism underlying the flavonoid-induced inhibition of fibrillation of α-synuclein” (biorxiv, 2025):

Biological target: T1, α-synuclein (α-Syn, αSyn), monomeric (Homo sapiens, UniProt P37840)
T1 construct: gene SNCA; purified, unfolded monomer
Assay: intrinsic tyrosine fluorescence quenching, modified Stern-Volmer plot
Details: 37 °C; protein 0.3 mg/mL, Cyanidin 2-30 μM; about 1:1; double-log; printed '8.4×10[5]'; paper calls it weak binding (mM range), which conflicts with this value

`Oc1cc(O)c2cc(O)c(-c3ccc(O)c(O)c3)[o+]c2c1` [Cyanidin] was tested, and the Ka was 840000 M⁻¹.
